In PubChem BioAssay (NCI):
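Protocol summary: plate cells (96-well), add compound at 5 concentrations, incubate 48 h, interpolate endpoints linearly. Abbreviation: GI50, concentration required for 50% inhibition of growth. TGI: concentration producing complete growth inhibition.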

How the values were obtained:
Assay in all cases: NCI tumour cell line growth inhibition, 48 h
SK-MEL-2 melanoma = system: SK-MEL-2 melanoma
K-562 leukemia = system: K-562 leukemia
A549 NSCLC = system: A549 NSCLC
NCI-H460 lung = system: NCI-H460 lung
NCI-H522 lung = system: NCI-H522 lung
NCI-H226 lung = system: NCI-H226 lung
MCF7 breast = system: MCF7 breast
RXF 393 renal = system: RXF 393 renal
SK-MEL-5 melanoma = system: SK-MEL-5 melanoma
HL-60(TB) leukemia = system: HL-60(TB) leukemia

SMILES | GI50 (SK-MEL-2 melanoma) [µM] | TGI (SK-MEL-2 melanoma) [µM] | GI50 (K-562 leukemia) [µM] | TGI (K-562 leukemia) [µM] | GI50 (A549 NSCLC) [µM] | TGI (A549 NSCLC) [µM] | GI50 (NCI-H460 lung) [µM] | TGI (NCI-H460 lung) [µM] | GI50 (NCI-H522 lung) [µM] | TGI (NCI-H522 lung) [µM] | GI50 (NCI-H226 lung) [µM] | TGI (NCI-H226 lung) [µM] | GI50 (MCF7 breast) [µM] | TGI (MCF7 breast) [µM] | GI50 (RXF 393 renal) [µM] | TGI (RXF 393 renal) [µM] | GI50 (SK-MEL-5 melanoma) [µM] | TGI (SK-MEL-5 melanoma) [µM] | GI50 (HL-60(TB) leukemia) [µM] | TGI (HL-60(TB) leukemia) [µM]
COC(=O)[C@]12CC[C@@H](C)[C@H](C)[C@@H]1C1=CC[C@@H]3[C@@]4(C)CC(=O)[C@H](O)[C@@](C)(CO)[C@@H]4C(=O)C[C@@]3(C)[C@]1(C)CC2 | 14.5 | 29.4 | 11.2 | 40.7 | 15.8 | 32.9 | 6.66 | 22.6 | 4.27 | 22.1 | 11.9 | 35.3 | 12.1 | 27.5 | 13.8 | 28.6 | 11.6 | 23.9 | 9.21 | 28.4
O=C(Nc1ccccc1)Nc1ccc(Cl)c(Cl)c1 | 2.32 | 9.97 | 3.79 | > 100 | 3.04 | > 100 | 3.06 | > 100 | 1.69 | 7.67 | 3.06 | > 100 | 3.14 | 73.3 | 6.31 | 33.8 | 3.61 | 14.4 | 3.98 | 26.9
COc1cc(NC(=O)c2ccccc2Nc2ccnc(C(F)(F)F)c2)cc(OC)c1OC | 51.1 | > 100 | 52.8 | > 100 | 58.1 | > 100 | 69.6 | > 100 | 38.2 | > 100 | 77.7 | > 100 | 37.1 | > 100 | > 100 | > 100 | 25.4 | > 100 | 44.3 | > 100
CC/C(=N/N=C(N)N)c1ccc(NC(=O)Nc2ccc(/C(CC)=N/N=C(N)N)cc2)cc1 | 4.03 | 31.2 | 1.06 | 7.25 | 5.1 | 22.4 | 4.1 | > 100 | 1.74 | 7.03 | 10.8 | 39.8 | 3.13 | > 100 | 7.81 | 33.2 | 2.07 | > 100 | 2.85 | 21.8
COc1c2ccccc2c(O)c2c(=O)ccn(C)c12 | 22.6 | > 100 | 7.5 | > 100 | 9.14 | > 67.3 | 3.51 | 17 | 23.9 | > 100 | 7.49 | > 49.9 | 3.31 | 11.3 | 5.27 | 20.3 | 3.77 | 14.4 | 3.25 | 18.7
COc1cc(-c2nn(-c3cccc(NC(=O)CCN4CCN(C)CC4)c3)cc2-c2ccncc2)ccc1Cl | 0.889 | 2.55 | 0.73 | 2.53 | 1.4 | 4.9 | 0.532 | 2.28 | 0.283 | 1.08 | 3.67 | 22.3 | 0.35 | 1.92 | 1.09 | 2.77 | 0.529 | 1.86 | 0.735 | 2.79
CCOC(=O)c1cc(-c2ccccc2)[nH]c1N/N=C/c1c(Cl)cccc1Cl | 0.961 | 87.5 | 0.491 | 13.7 | 1.92 | > 100 | 0.909 | > 61.7 | 0.701 | > 26.2 | 1.5 | 12.4 | 0.45 | > 100 | 0.47 | 9.51 | 0.706 | 14.1 | 0.484 | 5.13
C=C1C(=O)C2(C)OC2(C)C1C(=O)O (stereo not given) | – | > 100 | – | > 100 | – | > 100 | – | > 100 | – | > 100 | – | > 100 | – | > 100 | – | > 100 | – | > 100 | – | > 100
O=C1N=C(Nc2nc(-c3csc(NC4=NC(=O)/C(=C\c5ccc(Cl)cc5)S4)n3)cs2)S/C1=C/c1ccc(Cl)cc1 | > 50 | > 50 | 7.23 | > 50 | 10.5 | > 50 | 7.86 | > 50 | 24.7 | > 50 | 3.79 | 22.3 | 3.97 | > 50 | 11.6 | > 50 | 3.83 | 41 | 12.6 | 33.8
O=C1NC(=N[C@H](CO)c2ccccc2)S/C1=C\c1ccc2ncccc2c1 | 5.49 | 14.3 | 4 | > 25 | 4.62 | 18.8 | 3.71 | 24.6 | 1.54 | 6.31 | 4.8 | 16.5 | 4.57 | > 25 | 4.04 | 18.1 | 4.89 | 10.6 | 4.19 | 16.7
Nc1ccc(C(=O)Nc2ccccc2N)cc1 | – | > 86.1 | – | > 100 | – | > 100 | – | > 100 | – | 47.2 | – | > 100 | – | > 100 | – | > 100 | – | 43.4 | – | 17.6
CC(=O)C(C=O)C(C)=O.CC(=O)CC(C)=O.CC(=O)CC(C)=O.[Ru] | 24.3 | > 100 | 20.7 | > 100 | 33.5 | > 100 | 28.5 | > 100 | 16.4 | 55.1 | 5.83 | 35.2 | 35.4 | > 100 | 40.9 | > 100 | 0.0279 | 2.1 | 30.4 | > 100
COc1ccc(/C=C2\CCC(Cc3ccccc3)(CN(C)C)C2=O)cc1 (stereo not given) | – | > 100 | – | 78 | – | > 100 | – | > 100 | – | > 71.9 | – | > 96.3 | – | > 100 | – | > 72.9 | – | 44.8 | – | 55.3
Cc1ccc(S(=O)(=O)CC2(Br)CCc3ccccc3C2=O)cc1 (stereo not given) | – | 44.9 | – | > 100 | – | > 100 | – | > 100 | – | 32.7 | – | > 100 | – | 85.9 | – | 39 | – | 38.4 | – | 87.3
